Assay results taken from patent US9540343B2 (Gilead Sciences, Inc., priority 2011, dated 2017).

Legend:
HIV-IIIb = assay: Test A: Antiviral assay in MT4 cells; format: cell-based, HIV-1; details: Human immunodeficiency virus 1, IIIB, MT4, 120 h, read-out: % inhibition at 2 μM, percent inhibition of virus-induced cell killing, from dose response curve at 2 uM drug; MT-4 cells infected with HIV-IIIb, 5 days, CellTiter-Glo
in vitro = details: human, uninfected MT-4 cells, CC50 (nM), same protocol as Test A, CellTiter-Glo
Experimental: For the antiviral assay, 40 μL of 1× test concentration of 3-fold serially diluted compound in culture medium with 10% FBS was added to each well of a 384-well plate (10 concentrations) in quadruplicate. MT-4 cells were next mixed with HIV-IIIb at an m.o.i of 0.003 for 1 hour, after which time 35 μL of virus/cell mixture (2000 cells) was immediately added to each well containing 40 μL of diluted compound. The plates were then incubated at 37° C. for 5 days. After 5 days of incubation, 25 μl of 2× concentrated CellTiter-Glo™ Reagent (catalog #G7571, Promega Biosciences, Inc., Madison, Wis.) was added to each well containing MT-4 cells. Cell lysis was carried out by incubating at room temperature for 10 min and then chemiluminescence was read.
Test B: Cytotoxicity Assay
Compound cytotoxicity and the corresponding CC50 values was determined using the same protocol as described in the antiviral assay (Test A) except that uninfected cells were used.

| SMILES | inhibition at 2 µM (HIV-IIIb) | CC50 at 5 days (in vitro) |
| --- | --- | --- |
| Cc1ccccc1-c1cccnc1[C@@H](Cc1ccccc1)NC(=O)Cn1nc(C(F)(F)F)c2c1CCCC2 [Example 16, (R)—N-(2-phenyl-1-(3-o-tolylpyridin-2-yl)ethyl)-2-(3-(trifluoromethyl)-4,5,6,7-tetrahydro-1H-indazol-1-yl)acetamide] | 0% | 14000 nM |
| Cc1ccccc1-c1cccnc1[C@H](Cc1ccccc1)NC(=O)Cn1nc(C(F)(F)F)c2c1CCCC2 [Example 17, (S)—N-(2-phenyl-1-(3-o-tolylpyridin-2-yl)ethyl)-2-(3-(trifluoromethyl)-4,5,6,7-tetrahydro-1H-indazol-1-yl)acetamide] | 70% | 13800 nM |
| COc1ccc(-c2cccnc2[C@@H](Cc2ccccc2)NC(=O)Cn2nc(C(F)(F)F)c3c2CCCC3)c(C)c1 [Example 18, (R)—N-(1-(3-(4-methoxy-2-methylphenyl)pyridin-2-yl)-2-phenylethyl)-2-(3-(trifluoromethyl)-4,5,6,7-tetrahydro-1H-indazol-1-yl)acetamide] | 0% | 14600 nM |
| COc1ccc(-c2cccnc2[C@H](Cc2ccccc2)NC(=O)Cn2nc(C(F)(F)F)c3c2CCCC3)c(C)c1 [Example 19, (S)—N-(1-(3-(4-methoxy-2-methylphenyl)pyridin-2-yl)-2-phenylethyl)-2-(3-(trifluoromethyl)-4,5,6,7-tetrahydro-1H-indazol-1-yl)acetamide] | 25% | 14200 nM |
| COc1ccc(-c2cccnc2[C@H](Cc2ccccc2)NC(=O)Cc2c[nH]c3ccc(O)cc23)cc1 [Example 20, (S)-2-(5-hydroxy-1H-indol-3-yl)-N-(1-(3-(4-methoxyphenyl)pyridin-2-yl)-2-phenylethyl)acetamide] | 84% | 48300 nM |
| COc1ccc(-c2cccnc2[C@H](Cc2ccccc2)NC(=O)Cn2nc(C(F)(F)F)c3c2CCCC3)cc1 [Example 21, (S)—N-(1-(3-(4-methoxyphenyl)pyridin-2-yl)-2-phenylethyl)-2-(3-(trifluoromethyl)-4,5,6,7-tetrahydro-1H-indazol-1-yl)acetamide] | 28% | 15500 nM |
| COc1ccc(-c2cccnc2[C@@H](Cc2ccccc2)NC(=O)Cc2c[nH]c3ccc(O)cc23)cc1 [Example 22, (R)-2-(5-hydroxy-1H-indol-3-yl)-N-(1-(3-(4-methoxyphenyl)pyridin-2-yl)-2-phenylethyl)acetamide] | 0% | 45700 nM |
| COc1ccc(-c2cccnc2[C@@H](Cc2ccccc2)NC(=O)Cn2nc(C(F)(F)F)c3c2CCCC3)cc1 [Example 23, (R)—N-(1-(3-(4-methoxyphenyl)pyridin-2-yl)-2-phenylethyl)-2-(3-(trifluoromethyl)-4,5,6,7-tetrahydro-1H-indazol-1-yl)acetamide] | 0% | 13800 nM |
| Cc1ccccc1-c1cccnc1[C@H](Cc1cccc(F)c1)NC(=O)Cc1c[nH]c2ccc(O)cc12 [Example 24, (S)—N-(2-(3-fluorophenyl)-1-(3-o-tolylpyridin-2-yl)ethyl)-2-(5-hydroxy-1H-indol-3-yl)acetamide] | 39% | 24800 nM |
| Cc1ccccc1-c1cccnc1[C@H](Cc1cccc(F)c1)NC(=O)Cn1nc(C(F)(F)F)c2c1CCCC2 [Example 25, (S)—N-(2-(3-fluorophenyl)-1-(3-o-tolylpyridin-2-yl)ethyl)-2-(3-(trifluoromethyl)-4,5,6,7-tetrahydro-1H-indazol-1-yl)acetamide] | 71% | 11900 nM |
| Cc1ccccc1-c1cccnc1[C@H](Cc1cc(F)cc(F)c1)NC(=O)Cc1c[nH]c2ccc(O)cc12 [Example 26, (S)—N-(2-(3,5-difluorophenyl)-1-(3-o-tolylpyridin-2-yl)ethyl)-2-(5-hydroxy-1H-indol-3-yl)acetamide] | 70% | 24500 nM |
| Cc1ccccc1-c1cccnc1[C@H](Cc1cc(F)cc(F)c1)NC(=O)Cn1nc(C(F)(F)F)c2c1CCCC2 [Example 27, (S)—N-(2-(3,5-difluorophenyl)-1-(3-o-tolylpyridin-2-yl)ethyl)-2-(3-(trifluoromethyl)-4,5,6,7-tetrahydro-1H-indazol-1-yl)acetamide] | 72% | 12000 nM |
| COc1ccc(-c2cccnc2[C@H](Cc2cccc(F)c2)NC(=O)Cc2c[nH]c3ccc(O)cc23)cc1 [Example 28, (S)—N-(2-(3-fluorophenyl)-1-(3-(4-methoxyphenyl)pyridin-2-yl)ethyl)-2-(5-hydroxy-1H-indol-3-yl)acetamide] | 93% | 26000 nM |
| COc1ccc(-c2cccnc2[C@H](Cc2cccc(F)c2)NC(=O)Cn2nc(C(F)(F)F)c3c2CCCC3)cc1 [Example 29, (S)—N-(2-(3-fluorophenyl)-1-(3-(4-methoxyphenyl)pyridin-2-yl)ethyl)-2-(3-(trifluoromethyl)-4,5,6,7-tetrahydro-1H-indazol-1-yl)acetamide] | 36% | 13200 nM |
| COc1ccc(-c2cccnc2[C@H](Cc2cc(F)cc(F)c2)NC(=O)Cn2nc(C(F)(F)F)c3c2CCCC3)cc1 [Example 30, (S)—N-(2-(3,5-difluorophenyl)-1-(3-(4-methoxyphenyl)pyridin-2-yl)ethyl)-2-(3-(trifluoromethyl)-4,5,6,7-tetrahydro-1H-indazol-1-yl)acetamide] | 76% | 11900 nM |
| O=C(Cc1c[nH]c2ccccc12)N[C@@H](Cc1cc(F)cc(F)c1)c1ncccc1-c1ccc(Cl)cc1 [Example 31, (S)—N-(1-(3-(4-chlorophenyl)pyridin-2-yl)-2-(3,5-difluorophenyl)ethyl)-2-(1H-indol-3-yl)acetamide] | 34% | 8630 nM |
| O=C(Cc1c[nH]c2ccc(F)cc12)N[C@@H](Cc1cc(F)cc(F)c1)c1ncccc1-c1ccc(Cl)cc1 [Example 33, (S)—N-(1-(3-(4-chlorophenyl)pyridin-2-yl)-2-(3,5-difluorophenyl)ethyl)-2-(5-fluoro-1H-indol-3-yl)acetamide] | 75% | 9750 nM |
| COc1ccc(-c2cccnc2[C@H](Cc2cc(F)cc(F)c2)NC(=O)Cc2c[nH]c3cc(OC)c(OCc4ccccc4)cc23)cc1 [Example 34E, (S)-2-(5-(benzyloxy)-6-methoxy-1H-indol-3-yl)-N-(2-(3,5-difluorophenyl)-1-(3-(4-methoxyphenyl)pyridin-2-yl)ethyl)acetamide] | 0% | 27800 nM |
| COc1ccc(-c2cccnc2[C@H](Cc2cc(F)cc(F)c2)NC(=O)Cc2c[nH]c3ccc(NS(C)(=O)=O)cc23)cc1 [Example 35G, (S)—N-(2-(3,5-difluorophenyl)-1-(3-(4-methoxyphenyl)pyridin-2-yl)ethyl)-2-(5-(methylsulfonamido)-1H-indol-3-yl)acetamide] | 49% | 22400 nM |
| O=C(Cc1c[nH]c2ccc(=O)[nH]c12)N[C@@H](Cc1cc(F)cc(F)c1)c1ncccc1-c1ccc(Cl)cc1 [Example 37, (S)—N-(1-(3-(4-chlorophenyl)pyridin-2-yl)-2-(3,5-difluorophenyl)ethyl)-2-(5-oxo-4,5-dihydro-1H-pyrrolo[3,2-b]pyridin-3-yl)acetamide] | 84% | 34200 nM |
| O=C(Cc1c[nH]c2ccc(O)cc12)N[C@@H](Cc1cc(F)cc(F)c1)c1ncccc1Br [Example 38D, (S)—N-(1-(3-bromopyridin-2-yl)-2-(3,5-difluorophenyl)ethyl)-2-(5-hydroxy-1H-indol-3-yl)acetamide] | 3% | 42600 nM |
| N#Cc1cccc(-c2cccnc2[C@H](Cc2cc(F)cc(F)c2)NC(=O)Cc2c[nH]c3ccc(O)cc23)c1 [Example 38E, (S)—N-(1-(3-(3-cyanophenyl)pyridin-2-yl)-2-(3,5-difluorophenyl)ethyl)-2-(5-hydroxy-1H-indol-3-yl)acetamide] | 86% | 28600 nM |
| NC(=O)c1cc(-c2cccnc2[C@H](Cc2cc(F)cc(F)c2)NC(=O)Cc2c[nH]c3ccc(O)cc23)ccc1Cl [Example 40, (S)-2-chloro-5-(2-(2-(3,5-difluorophenyl)-1-(2-(5-hydroxy-1H-indol-3-yl)acetamido)ethyl)pyridin-3-yl)benzamide] | 99% | > 48900 nM |
| NC(=O)c1cc(-c2cccnc2[C@H](Cc2cc(F)cc(F)c2)NC(=O)Cc2c[nH]c3ccc(O)cc23)ccc1F [Example 41, (S)-5-(2-(2-(3,5-difluorophenyl)-1-(2-(5-hydroxy-1H-indol-3-yl)acetamido)ethyl)pyridin-3-yl)-2-fluorobenzamide] | 97% | > 53000 nM |
| NC(=O)c1ccc(-c2cccnc2[C@H](Cc2cc(F)cc(F)c2)NC(=O)Cc2c[nH]c3ccc(O)cc23)cc1 [Example 42, (S)-4-(2-(2-(3,5-difluorophenyl)-1-(2-(5-hydroxy-1H-indol-3-yl)acetamido)ethyl)pyridin-3-yl)benzamide] | 96% | > 53000 nM |
| NS(=O)(=O)c1ccc(-c2cccnc2[C@H](Cc2cc(F)cc(F)c2)NC(=O)Cc2c[nH]c3ccc(O)cc23)cc1 [Example 43, (S)—N-(2-(3,5-difluorophenyl)-1-(3-(4-sulfamoylphenyl)pyridin-2-yl)ethyl)-2-(5-hydroxy-1H-indol-3-yl)acetamide] | 28% | > 53000 nM |
